Laboratory results published in patent US10239843B2 (CANCER RESEARCH TECHNOLOGY LIMITED, priority 2014, dated 2019).
Where two headings read alike, the source gives them in different places.

Assays:
Human Full Length PARG = Human Full Length PARG (Homo sapiens (Human), UniProt Q86W56); test: PARG enzyme assay (TR-FRET); format: biochemical
PARG in HeLa cell line = test: PARG cell assay (PAR chain immunofluorescence after MMS); format: cell-based; settings: HeLa cells
In short: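 Nuclear poly(ADP-ribose) chains in HeLa cells are read by indirect immunofluorescence with a mouse anti-PAR antibody applied overnight at 4° C after fixing and permeabilising. Cells get 1 h of compound, then 50 μg/mL MMS (final) for another hour. PAR persisting at that point reflects PARG inhibition.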

Human Full Length ARH3 = Human Full Length ARH3 (Homo sapiens (Human), UniProt Q9NX46); test: ARH3 in vitro selectivity assay (TR-FRET); format: biochemical; settings: read-out: ARH3 Biochem IC50
Human Full Length ARH3, sequence (Q9NX46 whole entry): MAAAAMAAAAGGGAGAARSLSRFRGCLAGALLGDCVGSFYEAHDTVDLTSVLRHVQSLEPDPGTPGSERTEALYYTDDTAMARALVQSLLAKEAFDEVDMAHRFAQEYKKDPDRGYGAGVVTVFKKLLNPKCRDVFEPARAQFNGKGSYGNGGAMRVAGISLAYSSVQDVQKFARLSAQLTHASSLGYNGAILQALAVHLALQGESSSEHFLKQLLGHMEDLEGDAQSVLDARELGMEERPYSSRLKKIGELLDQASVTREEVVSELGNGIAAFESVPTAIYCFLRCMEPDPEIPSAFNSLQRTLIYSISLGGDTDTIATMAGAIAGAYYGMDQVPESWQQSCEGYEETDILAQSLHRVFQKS
Description: ARH3 In vitro selectivity assays were conducted in a total volume of 15 ul in a standard 384 well format.

[1] = biological target: Human High specific Activity PARP1 (Homo sapiens (Human), UniProt P09874); test: PARP1 in vitro selectivity assay (histone PARylation, luminescence); format: biochemical; settings: read-out: PARP1 Biochem IC50
Human High specific Activity PARP1, sequence (P09874 whole entry): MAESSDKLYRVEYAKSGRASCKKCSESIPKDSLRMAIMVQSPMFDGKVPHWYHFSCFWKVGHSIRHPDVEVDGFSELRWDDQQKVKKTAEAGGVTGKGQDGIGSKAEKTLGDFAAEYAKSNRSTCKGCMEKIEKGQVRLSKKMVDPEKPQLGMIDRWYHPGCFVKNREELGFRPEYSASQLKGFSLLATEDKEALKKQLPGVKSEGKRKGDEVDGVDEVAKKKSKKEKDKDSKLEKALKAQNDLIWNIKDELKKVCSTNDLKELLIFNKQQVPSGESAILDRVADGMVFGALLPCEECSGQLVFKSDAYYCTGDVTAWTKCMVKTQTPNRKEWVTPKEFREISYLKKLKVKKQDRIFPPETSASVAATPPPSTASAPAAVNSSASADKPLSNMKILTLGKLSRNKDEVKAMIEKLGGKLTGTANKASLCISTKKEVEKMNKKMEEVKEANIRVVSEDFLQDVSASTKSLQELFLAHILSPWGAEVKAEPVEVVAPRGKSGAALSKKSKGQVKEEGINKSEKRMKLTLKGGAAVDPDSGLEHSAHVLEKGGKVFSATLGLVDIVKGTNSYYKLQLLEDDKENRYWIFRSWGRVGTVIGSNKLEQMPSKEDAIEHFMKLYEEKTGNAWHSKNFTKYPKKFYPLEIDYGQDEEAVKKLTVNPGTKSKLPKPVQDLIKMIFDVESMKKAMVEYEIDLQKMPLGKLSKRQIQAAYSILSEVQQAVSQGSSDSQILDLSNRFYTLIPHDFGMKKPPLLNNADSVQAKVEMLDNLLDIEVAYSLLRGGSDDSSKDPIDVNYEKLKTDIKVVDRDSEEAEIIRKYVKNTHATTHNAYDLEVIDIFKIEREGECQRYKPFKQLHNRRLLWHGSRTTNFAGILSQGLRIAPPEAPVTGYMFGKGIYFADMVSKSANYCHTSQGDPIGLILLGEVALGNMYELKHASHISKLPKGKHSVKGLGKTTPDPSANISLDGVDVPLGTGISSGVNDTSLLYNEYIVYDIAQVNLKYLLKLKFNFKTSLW
Description: PARP1 In vitro selectivity assays were conducted as a 10 ul reaction volume in a NUNC Maxisorp 384-well assay plate pre-coated in-house with Histones. […] The wells were then washed with PBS/0.1% Triton X100. PARP1 activity was then detected by measuring the extent of PARylation. […] Luminescence signal was then measured immediately.

[2] = read-out: PARG Biochem IC50 Geomean
[3] = MMS 50 μg/mL, read-out: PARG Cell IC50 Geomean
[4] = Homo sapiens, MMS treatment, read-out: PARG Cell IC50
[5] = Homo sapiens, MMS 50 μg/mL, read-out: PARG Cell IC50 Geomean
[6] = MMS treatment, read-out: PARG Cell IC50

Human Full Length PARG, sequence (Q86W56 whole entry): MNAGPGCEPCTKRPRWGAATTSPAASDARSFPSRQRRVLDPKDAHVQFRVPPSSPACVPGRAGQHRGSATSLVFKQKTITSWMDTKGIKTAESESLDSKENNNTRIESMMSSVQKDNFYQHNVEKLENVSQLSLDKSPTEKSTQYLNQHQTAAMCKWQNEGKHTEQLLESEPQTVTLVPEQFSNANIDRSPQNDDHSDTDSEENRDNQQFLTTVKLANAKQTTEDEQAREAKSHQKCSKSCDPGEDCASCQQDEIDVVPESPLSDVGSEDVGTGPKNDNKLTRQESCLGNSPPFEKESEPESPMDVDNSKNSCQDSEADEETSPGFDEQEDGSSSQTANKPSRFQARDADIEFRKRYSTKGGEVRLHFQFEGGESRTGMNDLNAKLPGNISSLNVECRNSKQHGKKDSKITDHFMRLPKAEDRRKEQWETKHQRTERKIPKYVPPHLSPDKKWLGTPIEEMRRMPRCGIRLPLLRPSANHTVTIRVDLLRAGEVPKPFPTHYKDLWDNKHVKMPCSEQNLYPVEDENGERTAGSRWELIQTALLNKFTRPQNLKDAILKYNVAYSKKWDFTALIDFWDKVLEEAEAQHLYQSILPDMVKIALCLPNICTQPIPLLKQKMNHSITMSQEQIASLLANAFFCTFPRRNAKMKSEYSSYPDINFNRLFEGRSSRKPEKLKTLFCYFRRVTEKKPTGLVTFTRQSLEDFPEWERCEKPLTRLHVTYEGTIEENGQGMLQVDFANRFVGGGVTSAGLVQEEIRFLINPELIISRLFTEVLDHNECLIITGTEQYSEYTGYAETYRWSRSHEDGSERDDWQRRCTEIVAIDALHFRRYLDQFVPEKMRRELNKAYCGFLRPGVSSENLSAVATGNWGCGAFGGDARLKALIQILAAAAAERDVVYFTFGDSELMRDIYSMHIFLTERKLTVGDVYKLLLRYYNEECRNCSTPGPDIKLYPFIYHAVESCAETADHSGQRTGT

| IC50 (Human Full Length PARG; [2]) | IC50 (PARG in HeLa cell line; [3]) | IC50 (Human Full Length ARH3) | IC50 [1] | IC50 (Human Full Length PARG; read-out: PARG Biochem IC50) | IC50 (PARG in HeLa cell line; [4]) | IC50 (PARG in HeLa cell line; [5]) | IC50 (PARG in HeLa cell line; [6]) | Structure (SMILES) |
| --- | --- | --- | --- | --- | --- | --- | --- | --- |
| 274 nM | 201 nM | > 150000 nM | > 150000 nM | – | – | – | – | Cc1cc(Cn2nc(CC3CCOCC3)c3ccc(S(=O)(=O)NC4(C)CC4)cc3c2=O)on1 [Example 308] |
| 549 nM | – | > 150000 nM | > 150000 nM | – | – | – | – | Cc1cc(Cn2cc(C(=O)C3CC3)c3ccc(S(=O)(=O)NC4(C)CC4)cc3c2=O)on1 [Example 311, 4-(Cyclopropanecarbonyl)-N-(1-methylcyclopropyl)-2-[(3-methylisoxazol-5-yl)methyl]-1-oxo-isoquinoline-7-sulfonamide] |
| – | – | > 150000 nM | – | 121 nM | 706 nM | – | – | Cc1nc(Cn2c(=O)n(Cc3nnc(C)s3)c(=O)c3cc(S(=O)(=O)NC4(CF)CC4)ccc32)no1 [Example 631, N-[1-(Fluoromethyl)cyclopropyl]-1-[(5-methyl-1,2,4-oxadiazol-3-yl)methyl]-3-[(5-methyl-1,3,4-thiadiazol-2-yl)methyl]-2,4-dioxo-quinazoline-6-sulfonamide] |
| 19 nM | – | > 100000 nM | > 150000 nM | – | – | 28 nM | – | Cc1ncc(Cn2c(=O)c3cc(S(=O)(=O)NC4(C)CC4)ccc3n(CC3CC3)c2=O)s1 [Example 156] |
| 648 nM | – | > 150000 nM | > 150000 nM | – | – | – | – | Cc1cc(Cn2nc(Cc3ccccc3)c3ccc(S(=O)(=O)NC4(C)CC4)cc3c2=O)on1 [Example 298] |
| 33 nM | – | > 100000 nM | > 150000 nM | – | – | 63 nM | – | Cc1nc(C)c(Cn2c(=O)n(Cc3c(C)noc3C)c(=O)c3cc(S(=O)(=O)NC4(C)CC4)ccc32)s1 [Example 165] |
| – | – | > 150000 nM | > 150000 nM | 131 nM | 135 nM | – | – | CCn1c(=O)n(Cc2nnc(C)s2)c(=O)c2cc(S(=O)(=O)NC3(CF)CC3)ccc21 [Example 602, 1-Ethyl-N-[1-(fluoromethyl)cyclopropyl]-3-[(5-methyl-1,3,4-thiadiazol-2-yl)methyl]-2,4-dioxo-quinazoline-6-sulfonamide] |
| 4 nM | 9 nM | > 100000 nM | > 150000 nM | – | – | – | – | Cc1ncc(Cn2c(=O)c3cc(S(=O)(=O)NC4(C)CC4)ccc3n(Cc3sc(C)nc3C)c2=O)s1 [Example 162] |
| – | – | > 150000 nM | – | 82 nM | 226 nM | – | – | Cc1nnc(Cn2c(=O)c3cc(S(=O)(=O)NC4(CF)CC4)ccc3n(CCF)c2=O)s1 [Example 629, 1-(2-Fluoroethyl)-N-[1-(fluoromethyl)cyclopropyl]-3-[(5-methyl-1,3,4-thiadiazol-2-yl)methyl]-2,4-dioxo-quinazoline-6-sulfonamide] |
| – | – | > 150000 nM | > 150000 nM | 6 nM | 9 nM | – | – | Cc1nc(C)c(Cn2c(=O)n(Cc3cnn(C)c3)c(=O)c3cc(S(=O)(=O)NC4(CF)CC4)ccc32)s1 [Example 463, 1-[(2,4-Dimethylthiazol-5-yl)methyl]-N-[1-(fluoromethyl)cyclopropyl]-3-[(1-methylpyrazol-4-yl)methyl]-2,4-dioxo-quinazoline-6-sulfonamide] |
| 45 nM | 82 nM | > 100000 nM | > 150000 nM | – | – | – | – | C#CCn1c(=O)n(Cc2cnc(C)s2)c(=O)c2cc(S(=O)(=O)NC3(C)CC3)ccc21 [Example 161] |
| – | – | > 150000 nM | – | 7 nM | – | – | – | Cc1ncsc1Cn1c(=O)n(Cc2cnn(C)c2)c(=O)c2cc(S(=O)(=O)NC3(CF)CC3)ccc21 [Example 572, N-[1-(Fluoromethyl)cyclopropyl]-3-[(1-methylpyrazol-4-yl)methyl]-1-[(4-methylthiazol-5-yl)methyl]-2,4-dioxo-quinazoline-6-sulfonamide] |
| 2180 nM | – | > 150000 nM | > 150000 nM | – | – | – | – | Cn1c(C2CC2)nc2ccc(S(=O)(=O)NC3(C)CC3)cc2c1=O [Example 80] |
| – | – | > 150000 nM | – | 597 nM | 730 nM | – | – | Cc1cc(Cn2c(=O)c3cc(S(=O)(=O)NC4(CF)CC4)ccc3n(C)c2=O)sn1 [Example 625, N-[1-(Fluoromethyl)cyclopropyl]-1-methyl-3-[(3-methylisothiazol-5-yl)methyl]-2,4-dioxo-quinazoline-6-sulfonamide] |
| 92 nM | 88 nM | > 100000 nM | > 150000 nM | – | – | – | – | Cc1noc(C)c1Cn1c(=O)c2cc(S(=O)(=O)NC3(C)CC3)ccc2n(CC2CC2)c1=O [Example 158] |
| – | – | > 150000 nM | – | 9 nM | – | – | – | Cc1oncc1Cn1c(=O)n(Cc2cnn(C)c2)c(=O)c2cc(S(=O)(=O)NC3(CF)CC3)ccc21 [Example 579, N-[1-(Fluoromethyl)cyclopropyl]-1-[(5-methylisoxazol-4-yl)methyl]-3-[(1-methylpyrazol-4-yl)methyl]-2,4-dioxo-quinazoline-6-sulfonamide] |
| – | – | > 150000 nM | – | 17 nM | 25 nM | – | – | Cc1cc(Cn2c(=O)c3cc(S(=O)(=O)NC4(CF)CC4)ccc3n(Cc3sc(C)nc3C)c2=O)on1 [Example 616, 1-[(2,4-Dimethylthiazol-5-yl)methyl]-N-[1-(fluoromethyl)cyclopropyl]-3-[(3-methylisoxazol-5-yl)methyl]-2,4-dioxo-quinazoline-6-sulfonamide] |
| 5550 nM | – | > 150000 nM | > 150000 nM | – | – | – | – | CNc1nc2ccc(S(=O)(=O)NC3(C)CC3)cc2n(C)c1=O [Example 41, 4-Methyl-2-(methylamino)-N-(1-methylcyclopropyl)-3-oxo-quinoxaline-6-sulfonamide] |
| 18 nM | 88 nM | > 150000 nM | > 150000 nM | – | – | – | – | Cc1cc(Cn2c(=O)n(Cc3cnn(C)c3)c(=O)c3cc(S(=O)(=O)NC4(C)CC4)ccc32)n(C)n1 [Example 173] |
| 184 nM | 124 nM | > 100000 nM | > 150000 nM | – | – | – | – | Cc1nc(C)c(Cn2c(=O)n(C)c(=O)c3cc(S(=O)(=O)NC4(C)CC4)ccc32)s1 [Example 133] |
| – | – | > 150000 nM | – | 239 nM | – | – | 122 nM | CCn1c(=O)n(Cc2nnc(C)s2)c(=O)c2cc(S(=O)(=O)NC3(C)CC3)ccc21 [Example 614, 1-Ethyl-N-(1-methylcyclopropyl)-3-[(5-methyl-1,3,4-thiadiazol-2-yl)methyl]-2,4-dioxo-quinazoline-6-sulfonamide] |
| – | – | > 150000 nM | – | 39 nM | 37 nM | – | – | CCCCn1c(=O)n(Cc2cnn(C)c2)c(=O)c2cc(S(=O)(=O)NC3(CF)CC3)ccc21 [Example 617, 1-Butyl-N-[1-(fluoromethyl)cyclopropyl]-3-[(1-methylpyrazol-4-yl)methyl]-2,4-dioxo-quinazoline-6-sulfonamide] |
| – | – | > 150000 nM | – | 16 nM | – | – | 542 nM | Cc1nnc(Cn2c(=O)c3cc(S(=O)(=O)NC4(CF)CC4)ccc3n(Cc3cnn(C)c3)c2=O)s1 [Example 630, N-[1-(Fluoromethyl)cyclopropyl]-1-[(1-methylpyrazol-4-yl)methyl]-3-[(5-methyl-1,3,4-thiadiazol-2-yl)methyl]-2,4-dioxo-quinazoline-6-sulfonamide] |
| – | – | > 150000 nM | – | 10 nM | – | – | – | Cn1cc(Cn2c(=O)c3cc(S(=O)(=O)NC4(CF)CC4)ccc3n(Cc3ccns3)c2=O)cn1 [Example 578, N-[1-(Fluoromethyl)cyclopropyl]-1-(isothiazol-5-ylmethyl)-3-[(1-methylpyrazol-4-yl)methyl]-2,4-dioxo-quinazoline-6-sulfonamide] |
| 9440 nM | – | > 150000 nM | > 150000 nM | – | – | – | – | CC1(NS(=O)(=O)c2ccc3nc(N4CCCC4)[nH]c(=O)c3c2)CC1 [Example 98] |
| 426 nM | – | > 150000 nM | > 150000 nM | – | – | 460 nM | – | Cc1cc(Cn2c(=O)c3cc(S(=O)(=O)NC4(C)CC4)ccc3n(C)c2=O)on1 [Example 180] |
| 1020 nM | – | > 150000 nM | > 150000 nM | – | – | – | – | Cn1c(=O)c(=O)n(CC2CC2)c2ccc(S(=O)(=O)NC3(C)CC3)cc21 [Example 22, 1-(Cyclopropylmethyl)-4-methyl-N-(1-methylcyclopropyl)-2,3-dioxo-quinoxaline-6-sulfonamide] |
| – | – | – | – | 10200 nM | 3650 nM | – | – | Cn1cc(Cn2c(=O)[nH]c3ccc(S(=O)(=O)NC4(C=O)CC4)cc3c2=O)cn1 [Example 479, N-(1-Formylcyclopropyl)-3-[(1-methylpyrazol-4-yl)methyl]-2,4-dioxo-1H-quinazoline-6-sulfonamide] |
| – | – | – | – | 117 nM | 95 nM | – | – | Cc1cc(Cn2c(=O)c3cc(S(=O)(=O)NC4(CF)CC4)ccc3n(Cc3ccc(F)cc3)c2=O)on1 [Example 518, N-[1-(Fluoromethyl)cyclopropyl]-1-[(4-fluorophenyl)methyl]-3-[(3-methylisoxazol-5-yl)methyl]-2,4-dioxo-quinazoline-6-sulfonamide] |
